Experimental data taken from patent US10807951B2, “mTORC1 modulators” (THE REGENTS OF THE UNIVERSITY OF CALIFORNIA, priority 2017, dated 2020).
Values joined by “and” are separate entries in the source; they are usually repeats but may differ in a detail not shown here. Equal entries are not always repeated. “Also recorded” adds a separate entry of the source. Where two headings read alike, the source gives them in different places.

What was measured:
[1] = tested on: mTORC1; assay: mTORC1 signaling in HeLa cells by immunoblotting; format: cell-based; details: for mTORC1-mediated signaling (p-ULK1, pS6K1, p-4E-BP1): amino acid stimulation
Procedure: HeLa cells were subjected to starvation/refeeding protocols as described in the previous section, then lysed in ice-cold lysis buffer (150 mM NaCl, 20 mM HEPES [pH 7.4], 2 mM EDTA, 0.3% CHAPS or 1% Triton X-100, and one tablet of EDTA-free protease inhibitors per 50 ml). Cell lysates were cleared by centrifugation at 13,000 rpm for 10 minutes in a microfuge. Samples were normalized to a total concentration of 1 mg/mL protein and prepared using sample buffer at 1×, then boiled for 5 minutes at 95 C. Samples were loaded onto 10% or 12% SDS-Page gels, and analyzed by immunoblotting.
Several of these compounds were also directly tested for their ability to inhibit mTORC1 signaling in immunoblotting-based assays. […] Thus, we pursued CC 1-44 for further characterization.

[2] = target: LAMTOR5 (Homo sapiens, UniProt O43504); assay: Competitive isoTOP-ABPP with purified mTORC1, Rag GTPase and Lamtor complexes; format: binding
Text: To identify the specific druggable hotspot targeted by YP 1-44 within the TORC1 complex, we performed a chemoproteomic study using isotopic tandem orthogonal proteolysis-enabled activity-based protein profiling (isoTOP-ABPP). IsoTOP-ABPP uses reactivity-based chemical probes to profile proteome-wide reactive, functional, and druggable hotspots directly in complex proteomes. When used in a competitive manner, small-molecule covalent ligands can be competed against the binding of reactivity-based probes to facilitate the identification of druggable hotspots targeted by lead covalent ligands (5-7) (FIG. 4A). Here, we pre-treated human purified mTORC1, Rag GTPase and Lamtor complexes with either vehicle or YP 1-44, and subsequently labeled this reconstituted system with a broad cysteine-reactive probe iodoacetamide-alkyne (IA-alkyne). Any accessible cysteine druggable hotspot would be labeled with the IA-alkyne probe in the vehicle-treated control, but the site bound by YP 1-44 would no longer accessible to IA-alkyne binding. Subsequently, we used copper-catalyzed azide-alkyne cycloaddition to append an isotopically light (for control) or heavy (for YP 1-44-treated) biotin-azide tag bearing a TEV protease recognition peptide onto probe-labeled proteins, upon which we combined the control and treated proteomes in a 1:1 ratio, followed by avidin-enrichment, tryptic digestion, and elution of probe-modified tryptic peptides by TEV protease. The resulting peptides were analyzed by LC-LC/MS/MS and light-to-heavy ratios of probe-modified peptides were quantified. We identified two cysteines within LAMTOR5, C148 and C23 that were labeled with ratios of 0.51 and 3.7, respectively. If YP 1-44 bound to a particular cysteine, we would expect a higher (>2) light-to-heavy ratio.
IsoTOP-ABPP analyses were performed using a modified version of our previously reported method (PMID 28352901, 28186401). We pre-treated human purified mTORC1, Rag GTPase and Lamtor complexes (5 micrograms each) with DMSO vehicle or YP 1-44 (50 μM) for 30 min at 37° C. in phosphate-buffered saline (PBS), and then labeled with IA-alkyne (100 μM) for 1 h at room temperature. They were subsequently treated with isotopically light (control) or heavy (treated) TEV-biotin (100 μM) and copper-catalyzed azide-alkyne cycloaddition (CuAAC). For analysis of cysteine reactivity in primary colorectal tumor tissue, tumors were pooled and incubated with either 100 μM IA-alkyne and isotopically heavy TEV-biotin or 10 μM IA-alkyne and isotopically light TEV-biotin followed by CuAAC. Proteins were precipitated over one hour and pelleted by centrifugation at 6500×g. Proteins were washed 3 times with cold methanol then denatured and resolubilized by heating in 1.2% SDS/PBS to 85° C. for 5 min. Insoluble components were precipitated by centrifugation at 6500×g and soluble proteome was diluted in 5 ml PBS, for a final concentration of 0.2% SDS. Labeled proteins were bound to avidin-agarose beads (170 μL resuspended beads/sample, Thermo Pierce) while rotating overnight at 4° C. Bead-linked proteins were enriched by washing three times each in PBS and water, then resuspended in 6 M urea/PBS (Sigma-Aldrich) and reduced in dithiothreitol (1 mM, Sigma-Aldrich), alkylated with iodoacetamide (18 mM, Sigma-Aldrich), then washed and resuspended in 2 M urea/PBS with 1 mM calcium chloride and trypsinized overnight with 0.5 μg/μl sequencing grade trypsin (Promega). […]

[3] = tested on: Hela whole cell proteome; assay: Gel-based ABPP of IA-alkyne cysteine reactivity in Hela whole cell proteome
Text: Thus, we performed medicinal chemistry to optimize the potency and selectivity of our initial hits by addition of further bulk to the core YP 1-44 scaffold (FIGS. 9A-9C; FIG. 5B). We initially screened these compounds against both LAMTOR5 and the Ragulator complex using gel-based ABPP methods competing the binding of these YP 1-44 analogs against IA-alkyne labeling of these proteins (FIG. 5C, FIG. 9). We also tested these compounds against Hela cell whole proteome cysteine reactivity to get initial read-outs of proteome-wide selectivity (FIGS. 9A-9C, FIG. 5D).

[4] = tested on: RagA and RagC; assay: Immunofluorescence of Rag GTPases and LAMP2 in HEK-293A cells; format: cell-based; details: 2 h
Procedure: (§1) FIGS. 6A-6D. CC 1-44 inhibits mTORC1 signaling and activates autophagy. (FIG. 6A) Visual IP experiment monitoring binding of GFP-RagB to RFP-tagged, bead-bound Lamtor complex. […] (FIG. 6B) Immunofluorescence for endogenous RagA and LAMP2 in HEK-293A cells treated with DMSO, YP 1-44 or CC 1-44 for 2 h. […] (FIG. 6C) Immunofluorescence for endogenous mTOR and LAMP2 in HEK-293A cells treated with DMSO or CC 1-44 for 2 h. […] (FIG. 6D) Immunoblotting for autophagic markers LC3b and p62 from HEK-293A cells treated with DMSO (lane 1) or CC 1-44 (lane 3) for 2 h.
(§2) Next, we investigated the mechanism of mTORC1 inhibition by CC-1-44 using visual IP and immunofluorescence. […] Indeed, when we visualized RagA and RagC localization in CC 1-44-treated cells, their localization to LAMP2-positive lysosomes was increased, not decreased as for YP 1-44 (FIG. 6B). This observation pointed to a different mechanism for mTORC1 inactivation by CC 1-44. Rather than disrupting the integrity of the LAMTOR-Rag assembly, CC 1-44 prevents its activation, causing it to strongly accumulate at the lysosome in a conformation that is unable to bind to mTORC1.

[5] = tested on: mTOR; assay: Immunofluorescence of mTOR and LAMP2 in HEK-293A cells; format: cell-based; details: 2 h
Procedure: as §1, §2

[6] = compound 50 μM, IA-alkyne 100 μM, average of n=4

SMILES | phosphorylation of canonical mTORC1 substrates S6K1, 4E-BP1 and ULK1 ([1]; 10 μM) | potency of mTORC1 blockade relative to YP 1-44 ([1]; immunoblotting) | LAMTOR5 cysteines targeted (isoTOP-ABPP) [2] | LAMTOR5 cysteines targeted (isoTOP-ABPP) ([2]; listed as CC-1-44) | proteome-wide selectivity (displacement of IA-alkyne cysteine reactivity) [3] | RagA and RagC localization to LAMP2-positive lysosomes [4] | mTOR/mTORC1 localization to lysosomes [5] | mTORC1-mediated signaling (p-ULK1, pS6K1, p-4E-BP1) [1] | mTORC1-mediated signaling (p-ULK1, pS6K1, p-4E-BP1) ([1]; listed as YP1-44) | isoTOP-ABPP light-to-heavy ratio, LAMTOR5 C23 [2, 6] | isoTOP-ABPP light-to-heavy ratio, LAMTOR5 C148 [2, 6]
C=CC(=O)N1CCc2c(OCc3cc(C(F)(F)F)cc(C(F)(F)F)c3)cccc21 [CC 1-44] | completely inhibited | potency comparable to YP 1-44 | modified C23 and C148 in LAMTOR5 | target C23 and C148 of LAMTOR5 | selectivity at up to 1 mM; also recorded: apparent selectivity up to 1 mM | increased RagA clustering on lysosomes | induces dissociation of mTOR from lysosomes; also recorded: completely dispersed from lysosomes | – | – | – | –
C=CC(=O)n1ccc2ccccc21 [YP 1-44] | – | – | target C23 and C148 of LAMTOR5; also recorded: C23 of LAMTOR5 was the primary site; also recorded: modified C23 and C148 in LAMTOR5 | – | non-selectivity at 100 μM and above; also recorded: not sufficiently selective at higher concentrations (>100 μM) | causes RagA dissociation from Lamtor; also recorded: decreased | completely dispersed from lysosomes | completely inhibited | suppresses mTORC1 activation by amino acids | > 3 and 3.7 | 0.51
